Test results reported in US8669249B2, “Poly (ADP-ribose) polymerase (PARP) inhibitors” (Takeda Pharmaceutical Company Limited, priority 2009, dated 2014).

Assays:
[1] = molecular target: T1, catalytic domain of Human PARP (Homo sapiens, UniProt P09874); experiment: Biacore surface plasmon resonance affinity assay; format: binding; settings: pKD=-log10 KD, KD in mol/L; Biacore T100, 25° C.; read-out: pKD (converted)
T1 construct: The catalytic domain of Human PARP was cloned and prepared; made in house
T1 sequence (P09874 788-1014 limits assumed): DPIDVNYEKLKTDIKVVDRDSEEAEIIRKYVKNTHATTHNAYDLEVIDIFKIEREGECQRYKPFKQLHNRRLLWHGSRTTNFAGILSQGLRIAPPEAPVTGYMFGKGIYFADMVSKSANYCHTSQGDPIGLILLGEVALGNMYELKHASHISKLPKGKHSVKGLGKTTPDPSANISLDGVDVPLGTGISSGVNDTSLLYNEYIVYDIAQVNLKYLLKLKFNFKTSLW
Procedure, shortened: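 Binding at 25° C on Biacore T100: 1 min compound association then 5 min dissociation (50 μL/min) over immobilized PARP catalytic domain, buffer HBS-P plus 1% DMSO, 0.5 mM TCEP, 5 mM MgCl2, 2-fold dilution series. KD derived as koff/kon from fitted association and dissociation phases.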

Jurkat cell line = experiment: PARP cellular chemopotentiation assay (MTS, with/without TMZ); format: cell-based; settings: Chemopotentiation factor: ratio of EC50 values of Jurkat cells co-treated without and with 100 μM TMZ; 96 hours
Description: Potentiation Factor (PF50) Determination from PARP Cellular Chemopotentiation Assay
Jurkat cell line was maintained according to the supplier (American Type Culture Collection (Rockville, Md.)). Cells were seeded in 96-well tissue culture microplates at 10,000 cells per well and cultured for 24 hours prior to addition of compounds, TMZ (Temozolomide) or DMSO (dimethylsulfoxide) vehicle. After 96 hours of treatment, the conversion of MTS ([3-(4,5-dimethylthiazol-2-yl)-5-(3-carboxymethoxyphenyl)-2-(4-sulfophenyl)-2H-tetrazolium, inner salt], Promega, Madison, Wis.) by metabolically active cells was determined through measuring the OD490 nm with a Spectramax microplate reader (Molecular Devices, San Diego, Calif.). To generate concentration-response curves, cells were treated in duplicate with a range of serial compound dilutions (final DMSO concentration was 0.5%) in the absence or presence of 100 μM TMZ chemoreagent. The percentage of viable cells per well was calculated by correction for background and normalizing against DMSO-treated cells. EC50 values for inhibition of cell viability were calculated using XLfit4 MicroSoft Excel curve-fitting software. Chemopotentiation factor PF50 was calculated as the ratio of EC50 values of cells co-treated without and with TMZ, respectively.

PARP = molecular target: T2, PARP (Homo sapiens, UniProt P09874); experiment: PARP ELISA (ELISA-based colorimetric PARP/Apoptosis Assay kit, Trevigen); format: biochemical; settings: pIC50=-log10 IC50, IC50 in mol/L; inhibition of PARP catalytic activity
T2 construct: purchased Trevigen 4684-096-K HT (kit); 4684-096-01 (PARP enzyme)
T2 sequence (P09874 whole entry): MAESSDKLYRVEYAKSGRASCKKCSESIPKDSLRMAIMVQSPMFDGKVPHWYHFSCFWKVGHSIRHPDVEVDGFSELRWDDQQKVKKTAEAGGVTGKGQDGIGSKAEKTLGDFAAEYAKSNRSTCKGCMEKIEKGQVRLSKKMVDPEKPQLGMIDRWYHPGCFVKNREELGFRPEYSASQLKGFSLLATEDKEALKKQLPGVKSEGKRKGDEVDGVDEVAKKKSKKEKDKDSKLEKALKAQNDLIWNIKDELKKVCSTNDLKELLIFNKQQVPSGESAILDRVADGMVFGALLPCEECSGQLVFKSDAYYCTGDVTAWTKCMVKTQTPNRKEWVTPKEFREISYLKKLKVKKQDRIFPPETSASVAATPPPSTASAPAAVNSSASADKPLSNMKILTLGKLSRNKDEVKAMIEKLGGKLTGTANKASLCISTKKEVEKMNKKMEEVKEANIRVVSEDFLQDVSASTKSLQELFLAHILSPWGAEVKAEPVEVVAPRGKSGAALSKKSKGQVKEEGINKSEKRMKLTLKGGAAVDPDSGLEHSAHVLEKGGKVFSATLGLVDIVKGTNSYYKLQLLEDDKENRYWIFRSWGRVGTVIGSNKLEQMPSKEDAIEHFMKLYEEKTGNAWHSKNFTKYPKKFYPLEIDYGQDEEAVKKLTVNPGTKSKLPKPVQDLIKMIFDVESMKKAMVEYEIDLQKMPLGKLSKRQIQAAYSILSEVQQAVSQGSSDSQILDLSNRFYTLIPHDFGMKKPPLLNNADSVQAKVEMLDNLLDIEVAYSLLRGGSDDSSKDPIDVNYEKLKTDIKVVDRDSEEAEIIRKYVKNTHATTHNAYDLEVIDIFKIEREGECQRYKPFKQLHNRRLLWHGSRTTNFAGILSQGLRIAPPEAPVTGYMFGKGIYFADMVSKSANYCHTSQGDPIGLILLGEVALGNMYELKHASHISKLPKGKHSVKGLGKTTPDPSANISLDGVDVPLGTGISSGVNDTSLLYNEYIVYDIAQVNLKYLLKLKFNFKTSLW
Description: Inhibition Constant (IC50) from PARP ELISA
After 10 minutes of catalysis the reaction is quenched by solvent aspiration followed by irrigation of the assay wells 4 times with phosphate buffered saline (PBS) containing 0.1% t-Octylphenoxypolyethoxyethanol (Triton® X-100). Mouse Anti-poly ADP ribose (PAR) monoclonal antibody, goat antimouse immunoglobulin G (IgG)-horse radish peroxidase (HRP) conjugate and HRP substrate are added according to the manufacture's specifications to generate a colorimetric signal proportional to PARP catalytic activity.

Compound | Kd [1] [nM] | PF50 (Jurkat cell line) | IC50 (PARP) [nM]
Cc1ccc(N2CCN(Cc3ccc4c(c3)NC(=O)C(C)O4)CC2)nc1 (centres unmarked) [Compound 229, 2-Methyl-6-((4-(5-methylpyridin-2-yl)piperazin-1-yl)methyl)-2H-benzo[b][1,4]oxazin-3(4H)-one] | ≤ 10 | 1.0-1.9 | –
CC1Oc2ccc(CN3CCN(c4ccc(C(=O)O)cn4)CC3)cc2NC1=O (centres unmarked) [Compound 233, 6-(4-((2-Methyl-3-oxo-3,4-dihydro-2H-benzo[b][1,4]oxazin-6-yl)methyl)piperazin-1-yl)nicotinic acid] | 1260 to 10000 | – | ≥ 126
COc1cc(CN2CC=C(c3ccccc3)CC2)cc2c1OC(C)C(=O)N2 (centres unmarked) [Compound 158, 8-Methoxy-2-methyl-6-((4-phenyl-5,6-dihydropyridin-1(2H)-yl)methyl)-2H-benzo[b][1,4]oxazin-3(4H)-one] | 12.6 to 100 | 1.0-1.9 | –
CC1Oc2ccc(CN(C)Cc3ccc(-c4ccccc4)cc3)cc2NC1=O (centres unmarked) [Compound 72, 6-(((Biphenyl-4-ylmethyl)(methyl)amino)methyl)-2-methyl-2H-benzo[b][1,4]oxazin-3(4H)-one] | 126 to 1000 | ≦0.9 | –
CC1Oc2ccc(CN3CCN(c4ccc(N)cc4)CC3)cc2NC1=O (centres unmarked) [Compound 53, 6-((4-(4-Aminophenyl)piperazin-1-yl)methyl)-2-methyl-2H-benzo[b][1,4]oxazin-3(4H)-one] | 12.6 to 100 | ≦0.9 | –
CC1Oc2ccc(CN(C)Cc3ccc(Cl)cc3)cc2NC1=O (centres unmarked) [Compound 70, 6-(((4-Chlorobenzyl)(methyl)amino)methyl)-2-methyl-2H-benzo[b][1,4]oxazin-3(4H)-one] | – | 1.0-1.9 | –
CC1Oc2ccc(CN3CCC(c4ccc(C(F)(F)F)cc4)CC3)cc2NC1=O (centres unmarked) [Compound 213, 2-Methyl-6-((4-(4-(trifluoromethyl)phenyl)piperidin-1-yl)methyl)-2H-benzo[b][1,4]oxazin-3(4H)-one] | 126 to 1000 | 1.0-1.9 | –
CC1Oc2c(F)cc(CN3CC=C(c4ccc(Cl)cc4)CC3)cc2NC1=O (centres unmarked) [Compound 268, 6-((4-(4-Chlorophenyl)-5,6-dihydropyridin-1(2H)-yl)methyl)-8-fluoro-2-methyl-2H-benzo[b][1,4]oxazin-3(4H)-one] | > 10000 | – | ≥ 126
Cc1cc(CN2CCN(c3ccc(C(=O)NC4CC4)cn3)CC2)cc2c1OC(C)C(=O)N2 (centres unmarked) [Compound 262, N-Cyclopropyl-6-(4-((2,8-dimethyl-3-oxo-3,4-dihydro-2H-benzo[b][1,4]oxazin-6-yl)methyl)piperazin-1-yl)nicotinamide] | ≤ 10 | 2.0-9.9 | –
CC1Oc2ccc(CN3CCc4cc(Cl)ccc4C3)cc2NC1=O (centres unmarked) [Compound 80, 6-((6-Chloro-3,4-dihydroisoquinolin-2(1H)-yl)methyl)-2-methyl-2H-benzo[b][1,4]oxazin-3(4H)-one] | 126 to 1000 | ≦0.9 | –
CCOC(=O)c1ccc(N2CCN(Cc3cc4c(c(OC)c3)OC(C)C(=O)N4)CC2)cc1 (centres unmarked) [Compound 159, Ethyl 4-(4-((8-methoxy-2-methyl-3-oxo-3,4-dihydro-2H-benzo[b][1,4]oxazin-6-yl)methyl)piperazin-1-yl)benzoate] | < 31.6 | – | ≥ 126
CC1Oc2ccc(CN3Cc4ccc([N+](=O)[O-])cc4C3)cc2NC1=O (centres unmarked) [Compound 240, 2-Methyl-6-((5-nitroisoindolin-2-yl)methyl)-2H-benzo[b][1,4]oxazin-3(4H)-one] | 126 to 1000 | – | ≥ 126
CNC(=O)c1ccc(N2CCN(Cc3cc(C)c4c(c3)NC(=O)C(C)O4)CC2)nc1 (centres unmarked) [Compound 260, 6-(4-((2,8-Dimethyl-3-oxo-3,4-dihydro-2H-benzo[b][1,4]oxazin-6-yl)methyl)piperazin-1-yl)-N-methylnicotinamide] | ≤ 10 | 2.0-9.9 | –
CC1Oc2ccc(CN3CCN(c4ccc(C(F)(F)F)cn4)CC3)cc2NC1=O (centres unmarked) [Compound 230, 2-Methyl-6-((4-(5-(trifluoromethyl)pyridin-2-yl)piperazin-1-yl)methyl)-2H-benzo[b][1,4]oxazin-3(4H)-one] | 12.6 to 100 | 1.0-1.9 | –
COc1cc(CN2CCN(c3ccc(C(=O)O)cc3)CC2)cc2c1OC(C)C(=O)N2 (centres unmarked) [Compound 160, 4-(4-((8-Methoxy-2-methyl-3-oxo-3,4-dihydro-2H-benzo[b][1,4]oxazin-6-yl)methyl)piperazin-1-yl)benzoic acid] | 126 to 1000 | – | ≥ 126
CC1Oc2ccc(CN3CCc4cc(Br)ccc4C3)cc2NC1=O (centres unmarked) [Compound 81, 6-((6-Bromo-3,4-dihydroisoquinolin-2(1H)-yl)methyl)-2-methyl-2H-benzo[b][1,4]oxazin-3(4H)-one] | 12.6 to 100 | ≦0.9 | –
CC1Oc2ccc(CN3CCN(c4ccc(S(C)(=O)=O)cc4)CC3)cc2NC1=O (centres unmarked) [Compound 227, 2-Methyl-6-((4-(4-(methylsulfonyl)phenyl)piperazin-1-yl)methyl)-2H-benzo[b][1,4]oxazin-3(4H)-one] | – | 1.0-1.9 | –
CC1Oc2ccc(CN3CCN(c4ccc([N+](=O)[O-])cc4)CC3)cc2NC1=O (centres unmarked) [Compound 49, 2-Methyl-6-((4-(4-nitrophenyl)piperazin-1-yl)methyl)-2H-benzo[b][1,4]oxazin-3(4H)-one] | ≤ 10 | ≦0.9 | –
CCOC(=O)c1ccc(N2CCN(Cc3cc(C)c4c(c3)NC(=O)C(C)O4)CC2)nc1 (centres unmarked) [Compound 256, Ethyl 6-(4-((2,8-dimethyl-3-oxo-3,4-dihydro-2H-benzo[b][1,4]oxazin-6-yl)methyl)piperazin-1-yl)nicotinate] | 126 to 1000 | 1.0-1.9 | –
COc1cc(CN2CCN(c3ccc(C(=O)NC4CC4)cc3C)CC2)cc2c1OC(C)C(=O)N2 (centres unmarked) [Compound 364, N-Cyclopropyl-4-{4-[(8-methoxy-2-methyl-3-oxo-3,4-dihydro-2H-1,4-benzoxazin-6-yl)methyl]piperazin-1-yl}-3-methylbenzamide] | – | 4365 | –
CC1Oc2ccc(CN3Cc4ccccc4C3)cc2NC1=O (centres unmarked) [Compound 239, 6-(Isoindolin-2-ylmethyl)-2-methyl-2H-benzo[b][1,4]oxazin-3(4H)-one] | 126 to 1000 | – | ≥ 126
Cc1cc(CN2CC=C(c3ccc(Cl)cc3)CC2)cc2c1OC(C)C(=O)N2 (centres unmarked) [Compound 263, 6-((4-(4-Chlorophenyl)-5,6-dihydropyridin-1(2H)-yl)methyl)-2,8-dimethyl-2H-benzo[b][1,4]oxazin-3(4H)-one] | > 10000 | – | ≥ 126
CCOC(=O)c1ccc(N2CCN(Cc3cc(F)c4c(c3)NC(=O)C(C)O4)CC2)cc1 (centres unmarked) [Compound 269, Ethyl 4-(4-((8-fluoro-2-methyl-3-oxo-3,4-dihydro-2H-benzo[b][1,4]oxazin-6-yl)methyl)piperazin-1-yl)benzoate] | 126 to 1000 | – | ≥ 126
CC1Oc2c(F)cc(CN3CCN(c4ccc(C(=O)O)cc4)CC3)cc2NC1=O (centres unmarked) [Compound 270, 4-(4-((8-Fluoro-2-methyl-3-oxo-3,4-dihydro-2H-benzo[b][1,4]oxazin-6-yl)methyl)piperazin-1-yl)benzoic acid] | 1260 to 10000 | – | ≥ 126
CC(C)NC(=O)c1ccc(N2CCN(Cc3cc(F)c4c(c3)NC(=O)C(C)O4)CC2)nc1 (centres unmarked) [Compound 316, 6-(4-((8-Fluoro-2-methyl-3-oxo-3,4-dihydro-2H-benzo[b][1,4]oxazin-6-yl)methyl)piperazin-1-yl)-N-isopropylnicotinamide] | – | – | 100
CCNC(=O)c1ccc(N2CCN(Cc3cc4c(c(OC(F)F)c3)OC(C)C(=O)N4)CC2)c(Cl)c1 (centres unmarked) [Compound 405, 3-Chloro-4-(4-((8-(difluoromethoxy)-2-methyl-3-oxo-3,4-dihydro-2H-benzo[b][1,4]oxazin-6-yl)methyl)piperazin-1-yl)-N-ethylbenzamide] | – | 5.3 | –
CCN(C)C(=O)c1ccc(N2CCN(Cc3ccc4c(c3)NC(=O)C(C)O4)CC2)cc1 (centres unmarked) [Compound 379, N-Ethyl-N-methyl-4-(4-((2-methyl-3-oxo-3,4-dihydro-2H-benzo[b][1,4]oxazin-6-yl)methyl)piperazin-1-yl)benzamide] | – | – | > 200
CC1Oc2c(F)cc(CN3CCN(c4ccc(C(=O)NC5CC5)cn4)CC3)cc2NC1=O (centres unmarked) [Compound 317, N-Cyclopropyl-6-(4-((8-fluoro-2-methyl-3-oxo-3,4-dihydro-2H-benzo[b][1,4]oxazin-6-yl)methyl)piperazin-1-yl)nicotinamide] | – | – | 50.1
CCOC(=O)c1ccc(N2CCN(Cc3cc(F)c4c(c3)NC(=O)C(C)O4)CC2)nc1 (centres unmarked) [Compound 312, Ethyl 6-(4-((8-fluoro-2-methyl-3-oxo-3,4-dihydro-2H-benzo[b][1,4]oxazin-6-yl)methyl)piperazin-1-yl)nicotinate] | – | – | > 200
